± gives the standard deviation of the averaged measurements.
Experiments:
AFIMOXIFENE = compound: CC/C(=C(\c1ccc(O)cc1)c1ccc(OCCN(C)C)cc1)c1ccccc1 [AFIMOXIFENE]; assay: surviving fraction relative to DMSO-only wells; higher = less growth inhibition; conditions: exposure time: 5 days
Method in brief: (§1)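 In 384-well plates, 250–500 log-phase tumour cells per well were given 24 hours before five days of continuous exposure to inhibitors at 0.5, 1, 5, 10, 50, 100, 500 and 1000 nM. Surviving fraction is luminescence from CellTiter-Glo, normalised to the median of wells containing DMSO alone. Reading took place after 10 minutes at room temperature.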

VORINOSTAT = compound: O=C(CCCCCCC(=O)Nc1ccccc1)NO [VORINOSTAT]; assay: as above; conditions: exposure time: 5 days
Method in brief: as §1

| Test System | surviving fraction (AFIMOXIFENE; 0.5 nM) | surviving fraction (AFIMOXIFENE; 1 nM) | surviving fraction (AFIMOXIFENE; 5 nM) | surviving fraction (AFIMOXIFENE; 10 nM) | surviving fraction (AFIMOXIFENE; 50 nM) | surviving fraction (AFIMOXIFENE; 100 nM) | surviving fraction (AFIMOXIFENE; 500 nM) | surviving fraction (AFIMOXIFENE; 1000 nM) | surviving fraction (VORINOSTAT; 0.5 nM) | surviving fraction (VORINOSTAT; 1 nM) | surviving fraction (VORINOSTAT; 5 nM) | surviving fraction (VORINOSTAT; 10 nM) | surviving fraction (VORINOSTAT; 50 nM) | surviving fraction (VORINOSTAT; 100 nM) | surviving fraction (VORINOSTAT; 500 nM) | surviving fraction (VORINOSTAT; 1000 nM) |
| --- | --- | --- | --- | --- | --- | --- | --- | --- | --- | --- | --- | --- | --- | --- | --- | --- |
| HCC1806 BREAST | 1.04 ± 0.065 | 1.1 ± 0.077 | 1.16 ± 0.12 | 1.14 ± 0.048 | 1.15 ± 0.026 | 1.13 ± 0.072 | 0.965 ± 0.028 | 0.682 ± 0.064 | 1.13 ± 0.16 | 0.721 ± 0.61 | 0.825 ± 0.54 | 0.77 ± 0.64 | 1.18 ± 0.051 | 1.24 ± 0.16 | 0.852 ± 0.073 | 0.527 ± 0.089 |
| SUM149.B1*.S BREAST | 1.17 ± 0.043 | 1.1 ± 0.022 | 1.14 ± 0.065 | 1.16 ± 0.087 | 1.18 ± 0.051 | 1.16 ± 0.099 | 1.14 ± 0.07 | 1.2 ± 0.034 | 1.05 ± 0.026 | 0.971 ± 0.049 | 1.02 ± 0.047 | 0.845 ± 0.031 | 1.06 ± 0.038 | 1.05 ± 0.052 | 0.82 ± 0.038 | 0.523 ± 0.034 |
| T47D BREAST | 1.06 ± 0.052 | 1.11 ± 0.032 | 0.955 ± 0.0067 | 0.98 ± 0.048 | 0.95 ± 0.032 | 0.958 ± 0.034 | 0.888 ± 0.024 | 0.883 ± 0.037 | 0.967 ± 0.026 | 1.01 ± 0.02 | 1.02 ± 0.042 | 1.013 ± 0.006 | 1.08 ± 0.057 | 1.05 ± 0.043 | 0.785 ± 0.02 | 0.449 ± 0.028 |
| SUM159 BREAST | 1.12 ± 0.024 | 1.12 ± 0.028 | 1.12 ± 0.026 | 1.11 ± 0.013 | 1.09 ± 0.025 | 1.13 ± 0.023 | 1.114 ± 0.01 | 1.06 ± 0.016 | 0.975 ± 0.087 | 0.932 ± 0.16 | 0.929 ± 0.16 | 0.928 ± 0.15 | 0.923 ± 0.24 | 0.882 ± 0.28 | 0.926 ± 0.17 | 0.77 ± 0.29 |
| HCT15 LARGE INTESTINE | 1.08 ± 0.077 | 1.05 ± 0.055 | 1.07 ± 0.085 | 1.06 ± 0.097 | 1.04 ± 0.054 | 1.07 ± 0.025 | 1.07 ± 0.054 | 1.09 ± 0.056 | 0.9863 ± 0.0055 | 0.938 ± 0.023 | 0.963 ± 0.044 | 0.867 ± 0.067 | 1.05 ± 0.028 | 1.06 ± 0.03 | 0.98 ± 0.019 | 0.674 ± 0.056 |
| SG32 HEADNECK | 1.09 ± 0.33 | 1.93 ± 1.3 | 1.26 ± 0.11 | 1.18 ± 0.25 | 1.09 ± 0.093 | 0.982 ± 0.053 | 1.12 ± 0.087 | 1.21 ± 0.2 | 0.938 ± 0.1 | 1.18 ± 0.35 | 1.18 ± 0.2 | 0.933 ± 0.053 | 1.03 ± 0.25 | 0.995 ± 0.21 | 0.697 ± 0.16 | 0.344 ± 0.068 |
| U2OS BONE | 1.06 ± 0.056 | 1.07 ± 0.035 | 1.08 ± 0.024 | 1.1 ± 0.022 | 1.12 ± 0.015 | 1.1 ± 0.017 | 1.08 ± 0.057 | 1.01 ± 0.021 | 0.934 ± 0.013 | 1.03 ± 0.015 | 0.995 ± 0.026 | 1.01 ± 0.02 | 1.01 ± 0.016 | 1.04 ± 0.04 | 0.909 ± 0.047 | 0.751 ± 0.051 |
| OS25HAL BONE | 1.02 ± 0.036 | 1.04 ± 0.029 | 1.04 ± 0.014 | 1.02 ± 0.051 | 1.18 ± 0.044 | 1.09 ± 0.021 | 1.04 ± 0.084 | 1.04 ± 0.043 | 0.987 ± 0.014 | 0.962 ± 0.015 | 0.991 ± 0.015 | 0.943 ± 0.033 | 1.046 ± 0.0047 | 1.03 ± 0.031 | 0.91 ± 0.011 | 0.498 ± 0.018 |
| C33A CERVIX | 1.06 ± 0.065 | 1.07 ± 0.062 | 1.06 ± 0.15 | 1.1 ± 0.047 | 1.14 ± 0.083 | 1.21 ± 0.029 | 1.22 ± 0.12 | 1.34 ± 0.069 | 0.86 ± 0.078 | 0.952 ± 0.064 | 1.04 ± 0.031 | 1.05 ± 0.098 | 1.04 ± 0.15 | 1.05 ± 0.096 | 0.805 ± 0.014 | 0.615 ± 0.048 |
| SKBR3 BREAST | 1.16 ± 0.077 | 1.1 ± 0.16 | 1.16 ± 0.11 | 1.12 ± 0.16 | 1.17 ± 0.13 | 1.06 ± 0.19 | 1.16 ± 0.12 | 0.923 ± 0.12 | 1 ± 0.11 | 0.996 ± 0.15 | 0.85 ± 0.03 | 0.915 ± 0.17 | 0.98 ± 0.13 | 1.02 ± 0.15 | 0.433 ± 0.046 | 0.179 ± 0.046 |
| RDES SOFT TISSUE | 1.25 ± 0.09 | 1.16 ± 0.052 | 1.16 ± 0.034 | 1.14 ± 0.095 | 1.14 ± 0.14 | 1.15 ± 0.062 | 1.59 ± 0.34 | 0.955 ± 0.11 | 1.21 ± 0.099 | 1.19 ± 0.13 | 1.2 ± 0.029 | 1.1 ± 0.02 | 1.05 ± 0.073 | 1.11 ± 0.12 | 0.831 ± 0.13 | 1.12 ± 0.39 |
| 22RV1 PROSTATE | 1.06 ± 0.088 | 1.04 ± 0.089 | 1.09 ± 0.054 | 1.09 ± 0.016 | 1.1 ± 0.048 | 1.06 ± 0.08 | 1.13 ± 0.056 | 1.04 ± 0.079 | 0.946 ± 0.09 | 1.02 ± 0.026 | 0.987 ± 0.054 | 0.994 ± 0.034 | 1.09 ± 0.046 | 1.03 ± 0.058 | 1.03 ± 0.051 | 0.726 ± 0.071 |
| CASKI CERVIX | 0.882 ± 0.064 | 0.93 ± 0.023 | 0.989 ± 0.046 | 0.977 ± 0.03 | 1.1 ± 0.071 | 1.05 ± 0.017 | 1.01 ± 0.043 | 0.9003 ± 0.0032 | 0.88 ± 0.024 | 0.942 ± 0.062 | 0.957 ± 0.013 | 0.903 ± 0.029 | 0.971 ± 0.046 | 0.955 ± 0.034 | 0.496 ± 0.02 | 0.448 ± 0.027 |
| HU09 BONE | 1 ± 0.069 | 0.969 ± 0.057 | 1.02 ± 0.077 | 1.21 ± 0.1 | 1.13 ± 0.08 | 1.04 ± 0.065 | 0.971 ± 0.083 | 0.945 ± 0.038 | 0.943 ± 0.054 | 0.922 ± 0.041 | 0.931 ± 0.095 | 0.969 ± 0.053 | 1.01 ± 0.092 | 0.968 ± 0.13 | 0.721 ± 0.072 | 0.4 ± 0.013 |
| MDAMB157 BREAST | 1.04 ± 0.05 | 1.01 ± 0.062 | 1.04 ± 0.14 | 1.02 ± 0.072 | 1.06 ± 0.022 | 1.01 ± 0.014 | 0.942 ± 0.059 | 0.989 ± 0.12 | 0.889 ± 0.089 | 0.896 ± 0.034 | 0.939 ± 0.04 | 0.973 ± 0.069 | 1.01 ± 0.065 | 0.951 ± 0.068 | 0.825 ± 0.024 | 0.321 ± 0.04 |
| NCIH441 LUNG | 1.06 ± 0.11 | 1.07 ± 0.12 | 1.04 ± 0.11 | 1.12 ± 0.12 | 1.08 ± 0.11 | 1.14 ± 0.024 | 1.23 ± 0.03 | 1.03 ± 0.13 | 1.12 ± 0.041 | 1.02 ± 0.089 | 1.06 ± 0.033 | 1.04 ± 0.038 | 1.14 ± 0.02 | 0.959 ± 0.086 | 0.939 ± 0.024 | 0.546 ± 0.045 |
| DU4475 BREAST | 0.958 ± 0.1 | 0.963 ± 0.1 | 0.964 ± 0.053 | 0.903 ± 0.057 | 0.825 ± 0.017 | 0.717 ± 0.031 | 0.872 ± 0.17 | 0.651 ± 0.11 | 1.41 ± 0.74 | 1.08 ± 0.76 | 1.05 ± 0.56 | 1.25 ± 0.66 | 1.07 ± 0.57 | 0.952 ± 0.38 | 0.627 ± 0.22 | 0.431 ± 0.17 |
| HT1080 SOFT TISSUE | 1.07 ± 0.035 | 1.08 ± 0.018 | 1.08 ± 0.037 | 1.04 ± 0.018 | 1.01 ± 0.039 | 1.04 ± 0.023 | 1.07 ± 0.042 | 1.06 ± 0.035 | 1.02 ± 0.046 | 1.02 ± 0.015 | 1.05 ± 0.039 | 1.02 ± 0.034 | 0.951 ± 0.028 | 0.914 ± 0.017 | 0.671 ± 0.048 | 0.418 ± 0.029 |
| MDAMB231 BREAST | 0.987 ± 0.017 | 1.01 ± 0.032 | 1.01 ± 0.045 | 1.01 ± 0.023 | 1.02 ± 0.024 | 1.02 ± 0.018 | 1.01 ± 0.024 | 0.955 ± 0.035 | 0.995 ± 0.015 | 1 ± 0.017 | 0.993 ± 0.03 | 0.983 ± 0.025 | 1.01 ± 0.028 | 0.971 ± 0.042 | 0.805 ± 0.02 | 0.358 ± 0.0067 |

Source: the supplement of paper PMC6045584
